How the values were obtained:
Experiment in all cases: relative viability (nuclei count vs DMSO), 5 days (fraction); higher = more cells survive
[1] = tested on: NCI-H2228
Summary of the method: (§1)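 Lung cancer cell lines in 1536-well plates were dosed by pin tool the day after seeding, either with one drug alone or with a fixed anchor-drug dose plus five library-drug doses (not always all listed) in √10 steps. After 5 days, cells were fixed and their nuclei stained in one step (final 0.05% Triton X-100, 1% formaldehyde, 1 ug/ml Hoechst), then counted on 4× images. Relative viability is the nuclei count in treated wells divided by that in vehicle wells. Values are medians of duplicate plates.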

[2] = tested on: NCI-H647
Summary of the method: as §1

[3] = tested on: BEN
Summary of the method: as §1

[4] = tested on: NCI-H727
Summary of the method: as §1

[5] = tested on: NCI-H1650
Summary of the method: as §1

[6] = tested on: NCI-H1792
Summary of the method: as §1

[7] = tested on: NCI-H2405
Summary of the method: as §1

[8] = tested on: LXF-289
Summary of the method: as §1

[9] = tested on: HCC-827
Summary of the method: as §1

[10] = tested on: NCI-H3122
Summary of the method: as §1

[11] = tested on: CAL-12T
Summary of the method: as §1

[12] = tested on: NCI-H322M
Summary of the method: as §1

[13] = tested on: LCLC-103H
Summary of the method: as §1

[14] = tested on: SK-LU-1
Summary of the method: as §1

[15] = tested on: RERF-LC-KJ
Summary of the method: as §1

[16] = tested on: LCLC-97TM1
Summary of the method: as §1

[17] = tested on: NCI-H2087
Summary of the method: as §1

[18] = tested on: 201T
Summary of the method: as §1

[19] = tested on: NCI-H1437
Summary of the method: as §1

Question: `COc1cc2nccc(Oc3ccc(NC(=O)Nc4cc(C)on4)c(Cl)c3)c2cc1OC` [Tivozanib] + CC(C)C[C@H](NC(=O)[C@H](Cc1ccccc1)NC(=O)c1cnccn1)B(O)O [Bortezomib] (partner 0.002 µM) was tested. Which relative viability ([1]; first compound 0.005 µM) did it give?
Answer: Its relative viability is 0.86.

Question: And the relative viability ([1]; first compound 0.01581 µM)?
Answer: Its relative viability is 0.859.

Question: What about the relative viability ([1]; first compound 0.05 µM) of the same molecule?
Answer: The relative viability was 1.02.

Question: And the relative viability ([1]; first compound 0.1581 µM)?
Answer: Its relative viability is 0.887.

Question: What about the relative viability ([1]; first compound 0.5 µM) of the same molecule?
Answer: The relative viability was 0.972.

Question: What about the relative viability ([2]; first compound 0.005 µM) of the same molecule?
Answer: The relative viability was 0.953.

Question: And the relative viability ([2]; first compound 0.01581 µM)?
Answer: Its relative viability is 0.886.

Question: What about the relative viability ([2]; first compound 0.05 µM) of the same molecule?
Answer: The relative viability was 1.05.

Question: What about the relative viability ([2]; first compound 0.1581 µM) of the same molecule?
Answer: Its relative viability is 0.941.

Question: And the relative viability ([2]; first compound 0.5 µM)?
Answer: Its relative viability is 0.957.

Question: What about the relative viability ([3]; first compound 0.005 µM) of the same molecule?
Answer: The relative viability was 0.703.

Question: What about the relative viability ([3]; first compound 0.01581 µM) of the same molecule?
Answer: The relative viability was 0.847.

Question: And the relative viability ([3]; first compound 0.05 µM)?
Answer: The relative viability was 0.873.

Question: What about the relative viability ([3]; first compound 0.5 µM) of the same molecule?
Answer: Its relative viability is 0.86.

Question: And the relative viability ([4]; first compound 0.005 µM)?
Answer: Its relative viability is 0.701.

Question: What about the relative viability ([4]; first compound 0.01581 µM) of the same molecule?
Answer: Its relative viability is 0.818.

Question: What about the relative viability ([4]; first compound 0.05 µM) of the same molecule?
Answer: The relative viability was 0.772.

Question: What about the relative viability ([4]; first compound 0.5 µM) of the same molecule?
Answer: Its relative viability is 0.873.

Question: And the relative viability ([5]; first compound 0.005 µM)?
Answer: The relative viability was 0.195.

Question: And the relative viability ([5]; first compound 0.01581 µM)?
Answer: The relative viability was 0.21.

Question: What about the relative viability ([5]; first compound 0.05 µM) of the same molecule?
Answer: Its relative viability is 0.209.

Question: And the relative viability ([5]; first compound 0.1581 µM)?
Answer: Its relative viability is 0.264.

Question: And the relative viability ([5]; first compound 0.5 µM)?
Answer: Its relative viability is 0.196.

Question: What about the relative viability ([6]; first compound 0.005 µM) of the same molecule?
Answer: The relative viability was 0.961.

Question: And the relative viability ([6]; first compound 0.01581 µM)?
Answer: The relative viability was 0.967.

Question: What about the relative viability ([6]; first compound 0.05 µM) of the same molecule?
Answer: The relative viability was 0.965.

Question: And the relative viability ([6]; first compound 0.1581 µM)?
Answer: The relative viability was 0.989.

Question: What about the relative viability ([6]; first compound 0.5 µM) of the same molecule?
Answer: Its relative viability is 0.947.

Question: What about the relative viability ([7]; first compound 0.005 µM) of the same molecule?
Answer: Its relative viability is 0.87.

Question: What about the relative viability ([7]; first compound 0.01581 µM) of the same molecule?
Answer: Its relative viability is 1.01.

Question: And the relative viability ([7]; first compound 0.05 µM)?
Answer: Its relative viability is 1.05.

Question: And the relative viability ([7]; first compound 0.1581 µM)?
Answer: The relative viability was 1.02.

Question: What about the relative viability ([7]; first compound 0.5 µM) of the same molecule?
Answer: Its relative viability is 0.886.

Question: What about the relative viability ([8]; first compound 0.005 µM) of the same molecule?
Answer: Its relative viability is 0.952.

Question: And the relative viability ([8]; first compound 0.01581 µM)?
Answer: The relative viability was 0.956.

Question: What about the relative viability ([8]; first compound 0.05 µM) of the same molecule?
Answer: The relative viability was 0.959.

Question: And the relative viability ([8]; first compound 0.1581 µM)?
Answer: The relative viability was 1.03.

Question: What about the relative viability ([8]; first compound 0.5 µM) of the same molecule?
Answer: Its relative viability is 0.964.

Question: And the relative viability ([9]; first compound 0.005 µM)?
Answer: Its relative viability is 0.981.

Question: And the relative viability ([9]; first compound 0.01581 µM)?
Answer: The relative viability was 1.01.

Question: What about the relative viability ([9]; first compound 0.05 µM) of the same molecule?
Answer: Its relative viability is 1.13.

Question: And the relative viability ([9]; first compound 0.1581 µM)?
Answer: Its relative viability is 1.08.

Question: What about the relative viability ([9]; first compound 0.5 µM) of the same molecule?
Answer: The relative viability was 1.03.

Question: What about the relative viability ([10]; first compound 0.005 µM) of the same molecule?
Answer: The relative viability was 0.99.

Question: What about the relative viability ([10]; first compound 0.01581 µM) of the same molecule?
Answer: The relative viability was 1.02.

Question: And the relative viability ([10]; first compound 0.05 µM)?
Answer: Its relative viability is 1.08.

Question: What about the relative viability ([10]; first compound 0.1581 µM) of the same molecule?
Answer: Its relative viability is 1.12.

Question: What about the relative viability ([10]; first compound 0.5 µM) of the same molecule?
Answer: The relative viability was 1.04.

Question: And the relative viability ([11]; first compound 0.005 µM)?
Answer: Its relative viability is 0.86.

Question: And the relative viability ([11]; first compound 0.01581 µM)?
Answer: Its relative viability is 0.967.

Question: What about the relative viability ([11]; first compound 0.05 µM) of the same molecule?
Answer: The relative viability was 1.14.

Question: What about the relative viability ([11]; first compound 0.5 µM) of the same molecule?
Answer: The relative viability was 1.03.

Question: What about the relative viability ([12]; first compound 0.005 µM) of the same molecule?
Answer: Its relative viability is 1.24.

Question: What about the relative viability ([12]; first compound 0.01581 µM) of the same molecule?
Answer: The relative viability was 1.21.

Question: And the relative viability ([12]; first compound 0.05 µM)?
Answer: Its relative viability is 1.18.

Question: And the relative viability ([12]; first compound 0.1581 µM)?
Answer: The relative viability was 1.05.

Question: And the relative viability ([12]; first compound 0.5 µM)?
Answer: Its relative viability is 1.28.

Question: What about the relative viability ([13]; first compound 0.005 µM) of the same molecule?
Answer: The relative viability was 0.964.

Question: And the relative viability ([13]; first compound 0.01581 µM)?
Answer: The relative viability was 1.01.

Question: What about the relative viability ([13]; first compound 0.05 µM) of the same molecule?
Answer: The relative viability was 1.21.

Question: What about the relative viability ([13]; first compound 0.1581 µM) of the same molecule?
Answer: Its relative viability is 1.04.

Question: And the relative viability ([13]; first compound 0.5 µM)?
Answer: Its relative viability is 0.967.

Question: What about the relative viability ([14]; first compound 0.005 µM) of the same molecule?
Answer: Its relative viability is 0.931.

Question: And the relative viability ([14]; first compound 0.01581 µM)?
Answer: The relative viability was 1.26.

Question: What about the relative viability ([14]; first compound 0.05 µM) of the same molecule?
Answer: The relative viability was 1.2.

Question: And the relative viability ([14]; first compound 0.1581 µM)?
Answer: Its relative viability is 0.784.

Question: And the relative viability ([14]; first compound 0.5 µM)?
Answer: Its relative viability is 0.907.

Question: What about the relative viability ([15]; first compound 0.005 µM) of the same molecule?
Answer: The relative viability was 1.11.

Question: And the relative viability ([15]; first compound 0.01581 µM)?
Answer: Its relative viability is 1.06.

Question: And the relative viability ([15]; first compound 0.05 µM)?
Answer: Its relative viability is 1.11.

Question: What about the relative viability ([15]; first compound 0.1581 µM) of the same molecule?
Answer: The relative viability was 0.83.

Question: And the relative viability ([15]; first compound 0.5 µM)?
Answer: The relative viability was 1.03.

Question: What about the relative viability ([16]; first compound 0.005 µM) of the same molecule?
Answer: Its relative viability is 0.533.

Question: What about the relative viability ([16]; first compound 0.01581 µM) of the same molecule?
Answer: The relative viability was 0.584.

Question: What about the relative viability ([16]; first compound 0.05 µM) of the same molecule?
Answer: Its relative viability is 0.913.

Question: And the relative viability ([16]; first compound 0.1581 µM)?
Answer: Its relative viability is 0.603.

Question: And the relative viability ([16]; first compound 0.5 µM)?
Answer: Its relative viability is 1.

Question: And the relative viability ([17]; first compound 0.005 µM)?
Answer: Its relative viability is 0.644.

Question: And the relative viability ([17]; first compound 0.01581 µM)?
Answer: The relative viability was 0.919.

Question: What about the relative viability ([17]; first compound 0.05 µM) of the same molecule?
Answer: The relative viability was 0.842.

Question: What about the relative viability ([17]; first compound 0.1581 µM) of the same molecule?
Answer: The relative viability was 0.77.

Question: What about the relative viability ([17]; first compound 0.5 µM) of the same molecule?
Answer: Its relative viability is 0.739.

Question: What about the relative viability ([18]; first compound 0.005 µM) of the same molecule?
Answer: The relative viability was 1.11.

Question: What about the relative viability ([18]; first compound 0.01581 µM) of the same molecule?
Answer: Its relative viability is 1.08.

Question: And the relative viability ([18]; first compound 0.05 µM)?
Answer: Its relative viability is 1.06.

Question: What about the relative viability ([18]; first compound 0.1581 µM) of the same molecule?
Answer: The relative viability was 1.07.

Question: What about the relative viability ([18]; first compound 0.5 µM) of the same molecule?
Answer: The relative viability was 1.11.

Question: What about the relative viability ([19]; first compound 0.005 µM) of the same molecule?
Answer: Its relative viability is 0.487.

Question: And the relative viability ([19]; first compound 0.01581 µM)?
Answer: Its relative viability is 0.558.

Question: And the relative viability ([19]; first compound 0.05 µM)?
Answer: The relative viability was 0.523.

Question: And the relative viability ([19]; first compound 0.1581 µM)?
Answer: Its relative viability is 0.508.

Question: What about the relative viability ([19]; first compound 0.5 µM) of the same molecule?
Answer: Its relative viability is 0.399.
